Experimental data from patent US20100113484A1, “TREATING AGENT OF UROPATHY” (ASKA PHARMACEUTICAL CO., LTD., priority 2006, published 2010).
Read-outs that look alike come from different tables or passages of the source.

What was measured:
[1] = system: partial urethra obstruction model in guinea pigs; assay: Dysuria pathological model: partial urethra obstruction model, cystometry; format: in vivo, Hartley female guinea pigs; conditions: guinea pig, i.v.
Experimental: Three-four weeks old Hartley female guinea pigs (Japan SLC, Inc.) were given celiotomy under anesthesia with pentobarbital (30 mg/kg i.p.) and in their urethra to the peripheral side by 1-2 mm from the bladder neck, each a polyethylene tube of 1.4 mm in width and 2.0 mm in inner diameter was placed. After closing the wound, the guinea pigs were bred for at least 3 weeks to produce partial urethra obstruction model in guinea pigs in which occurrence of intravesical pressure rise not accompanied by micturition (uninhibited contraction) and residual urine were observed.
The model was catheterized under anesthesia with urethane (1 g/kg i.p.) at the apex of urinary bladder and right jugular vein for cystometrography and intravenous administration, respectively. The other end of the bladder catheter was connected to a pressure transducer and infusion pump via a three way stop-cock, and physiological saline was continuously infused into the bladder through the infusion pump at a rate of 0.4 mL/min to induce micturition reflex. Immediately after the micturition reflex was induced, infusion of physiological saline into the bladder was stopped. The intravesical pressure at the time the micturition reflex was induced was measured with the pressure transducer, and the obtained cystometrogram was recorded with pen recorder. The urine voided was collected with disposable type weighing dish and its weight was measured. Further the physiological saline remained in the bladder was sucked with syringe via the bladder catheter and the residual urine volume was measured. The operations of suspending the infusion of physiological saline upon induction of micturition reflex, and about 1 minute thereafter resuming the infusion of physiological saline to induce micturition reflex were repeated plural times (generally 4 times) to stabilize the micturition reflex.
After stabilizing the micturition reflex, a compound solution (prepared by dissolving the compound or methanesulfonic acid salt thereof in DMSO and diluting it with physiological saline or distilled water) or physiological saline was administered into the vein at a volume of 10 mL/kg over 4 minutes, and simultaneously the above-described micturition reflex operations were repeated until 30 minutes passed after initiation of the administration, while measuring the intravesical pressure and the volumes of micturition and residual urine. Also the frequency of uninhibited contraction occurrence during the above-described operations was recorded.

[2] = target: T1, human recombinant PDE5 protein (Homo sapiens, UniProt O76074); assay: Measurement of PDE5-inhibiting activity; format: biochemical
T1 construct: made in house; host or cells: COS-1 cells, transient transfection with pcDNA 3.1 (+); supernatant of the homogenate, not purified
Experimental: PCR condition: [94° C., 2 min]×1 cycle, [(94° C., 30 sec), (65° C., 30 sec), (68° C., 3 min)]×25 cycles, [68° C., 6 min]×1 cycle
Thus obtained hsPDE5A1 fragment was given a restricted enzymatic treatment with XBaI and EcoRI, and thereafter inserted into pcDNA 3.1 (+) expression vector (Invitrogen) to let it serve as a human PDE5 expression vector.
Human PDE5 expression vector-transformed Escherichia coli was mass incubated to produce a large amount of human PDE5 expression vector, which was transiently transfected into COS-1 cells, with LIPOFECTAMINE 2000 Reagent (GIBCO). The cells were homogenized in ice-cooled buffer A and centrifuged at 4° C., 14,000×g for 10 minutes. The supernatant was isolated to provide human recombinant PDE5 protein solution.

[3] = target: T2, human recombinant PDE9 protein (Homo sapiens, UniProt O76083); assay: Measurement of PDE9-inhibiting activity ([3H]-cGMP hydrolysis); format: biochemical
T2 construct: made in house; host or cells: COS-1 cells, transient transfection with pcDNA 3.1 (+); supernatant of the homogenate, not purified
T2 sequence (O76083 whole entry): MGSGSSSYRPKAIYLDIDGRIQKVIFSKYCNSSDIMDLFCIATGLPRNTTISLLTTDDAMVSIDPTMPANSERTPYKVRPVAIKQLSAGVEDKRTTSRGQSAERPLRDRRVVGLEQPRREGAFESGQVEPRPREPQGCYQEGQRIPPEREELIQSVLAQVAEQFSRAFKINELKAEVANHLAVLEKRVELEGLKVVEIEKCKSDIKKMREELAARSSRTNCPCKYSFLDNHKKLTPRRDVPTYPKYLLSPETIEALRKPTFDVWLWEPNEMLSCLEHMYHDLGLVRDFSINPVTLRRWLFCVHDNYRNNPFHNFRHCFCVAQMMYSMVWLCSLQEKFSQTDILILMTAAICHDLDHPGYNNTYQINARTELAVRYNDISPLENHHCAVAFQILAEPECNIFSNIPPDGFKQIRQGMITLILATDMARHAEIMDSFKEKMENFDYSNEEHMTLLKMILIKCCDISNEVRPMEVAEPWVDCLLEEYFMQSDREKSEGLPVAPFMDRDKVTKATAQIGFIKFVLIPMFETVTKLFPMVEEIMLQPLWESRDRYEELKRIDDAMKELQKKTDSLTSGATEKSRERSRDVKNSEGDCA
Experimental: Based on the base sequence of hsPDE9A1 registered with GenBank database (accession No.: AF048837), hsPDE9A1 fragment was amplified by polymerase chain reaction under the following conditions, using the following sequence (Amasham Pharmacia Biotech) as the primer and Human Prostate […] cDNA library (CLONTECH) as the template DNA, with Pfu Turbo DNA polymerase ([…]):
PCR condition: [95° C., 5 min]×1 cycle, [(95° C., 1 min), (58° C., 2 min), (72° C., 3 min)]×25 cycles, [72° C., 10 min]×1 cycle
Thus obtained hsPDE9A1 fragment was given a restricted enzymatic treatment with NheI and NotI, and thereafter inserted into pcDNA 3.1 (+) expression vector (Invitrogen) to let it serve as a human PDE9 expression vector.
Human PDE9 expression vector-transformed Escherichia coli was mass incubated to produce a large amount of human PDE9 expression vector, which was transiently transfected into COS-1 cells, with LIPOFECTAMINE 2000 Reagent (GIBCO). The cells were homogenized in ice-cooled buffer A (40 mmol/L Tris-HCl, pH7.5, 15 mmol/L benzamidine, 15 mmol/L 2-mercaptoethanol, 1 μg/mL Pepstatin A, 1 μg/mL Leupeptin, 5 mmol/L EDTA) and centrifuged at 4° C., 14,000×g for 10 minutes. The supernatant was isolated to provide human recombinant PDE9 protein solution.
This mixed solution was incubated at 30° C. for 30 minutes and the enzymatic reaction of PDE9 was terminated by heating the system in boiling water for 90 seconds. Returning the system to room temperature, 50 μL of Snake venom (SIGMA: 1 mg/mL) was added, followed by 10 minutes' incubation at 30° C., to convert the [^3H]-5′-GMP produced in the previous reaction to [^3H]-guanosine. […] Thereafter [^3H]-guanosine was eluted with 3 mL of 3 mol/L aqueous ammonia and its radiation activity was measured with liquid scintillation counter.
PDE9 inhibition of the tested compound can be calculated by the following formula: […]
From the percent inhibition at various concentration levels of each tested compound, its IC50 value against PDE9 can be determined.

[4] = Tables A and C, read-out: Inhibiting Activity (IC50 value) PDE5
[5] = Tables A and C, read-out: Inhibiting Activity (IC50 value) PDE9
[6] = Table B, read-out: Inhibiting Activity IC50 PDE5
[7] = Table B, read-out: Inhibiting Activity IC50 PDE9

## Cc1c(C(=O)O)sc2nc(Cc3cccs3)[nH]c(=O)c12 [A-2, 5-Methyl-4-oxo-2-(thiophen-2-ylmethyl)-3,4-dihydrothieno-[2,3-d]pyrimidine-6-carboxylic acid]
[1]; 1 mg/kg
  Frequency of occurrence of uninhibited contraction after administration: 0.47 times/min
  Frequency of occurrence of uninhibited contraction volume change: −0.44 times/min
  Residual urine volume after administration: 1.23 mL
  Residual urine volume volume change: -0.04 mL
[1]; 10 mg/kg
  Frequency of occurrence of uninhibited contraction after administration: 0.78 times/min
  Frequency of occurrence of uninhibited contraction volume change: −0.13 times/min
  Residual urine volume after administration: 1.02 mL
  Residual urine volume volume change: -0.25 mL
[2]; [4]
  IC50: 21100 nM
[3]; [5]
  IC50: 40 nM

## Cc1c(C(=O)O)sc2nc(Cc3ccccc3)[nH]c(=S)c12 [A-24, 2-Benzyl-5-methyl-4-thioxo-3,4-dihydrothieno[2,3-d]-pyrimidine-6-carboxylic acid]
[2]; [4]
  IC50: 642 nM
[3]; [5]
  IC50: 13 nM

## Cc1c(C(=O)O)sc2nc(Cc3cccc(Br)c3)[nH]c(=S)c12 [A-25, 2-(3-Bromobenzyl)-5-methyl-4-thioxo-3,4-dihydrothieno-[2,3-d]pyrimidine-6-carboxylic acid]
[2]; [4]
  IC50: 712 nM
[3]; [5]
  IC50: 11 nM

## Cc1c(C(=O)O)sc2nc(Cc3cccc(C(F)(F)F)c3)[nH]c(=S)c12 [A-27, 5-Methyl-4-thioxo-2-(3-trifluoromethylbenzyl)-3,4-dihydrothieno[2,3-d]pyrimidine-6-carboxylic acid]
[2]; [4]
  IC50: 3510 nM
[3]; [5]
  IC50: 6 nM

## Cc1c(C(=O)O)sc2nc(Cc3ccc(Cl)c(Cl)c3)[nH]c(=S)c12 [A-28, 2-(3,4-Dichlorobenzyl)-5-methyl-4-thioxo-3,4-dihydrothieno-[2,3-d]pyrimidine-6-carboxylic acid]
[2]; [4]
  IC50: 73 nM
[3]; [5]
  IC50: 4 nM

## Cc1c(C(=O)O)sc2nc(Cc3ccc(F)c(Cl)c3)[nH]c(=S)c12 [A-29, 2-(3-Chloro-4-fluorobenzyl)-5-methyl-4-thioxo-3,4-dihydrothieno[2,3-d]pyrimidine-6-carboxylic acid]
[2]; [4]
  IC50: 495 nM
[3]; [5]
  IC50: 7 nM

## Cc1c(C(=O)O)sc2nc(CC3=CCCCC3)[nH]c(=S)c12 [A-30, 2-(Cyclohex-1-enylmethyl)-5-methyl-4-thioxo-3,4-dihydrothieno[2,3-d]pyrimidine-6-carboxylic acid]
[2]; [4]
  IC50: 70 nM
[3]; [5]
  IC50: 48 nM

## O=C(O)c1cc2c(=S)[nH]c(Cc3ccccc3)nc2s1 [A-32, 2-Benzyl-4-thioxo-3,4-dihydrothieno[2,3-d]pyrimidine-6-carboxylic acid]
[2]; [4]
  IC50: 8870 nM
[3]; [5]
  IC50: 11 nM

## O=C(O)c1cc2c(=S)[nH]c(Cc3ccc(Cl)c(Cl)c3)nc2s1 [A-33, 2-(3,4-Dichlorobenzyl)-4-thioxo-3,4-dihydrothieno[2,3-d]-pyrimidine-6-carboxylic acid]
[2]; [4]
  IC50: 721 nM
[3]; [5]
  IC50: 5 nM

## Cc1c(C(=O)O)sc2nc(Cc3ccccc3)[nH]c(=O)c12 [A-34]
[2]; [4]
  IC50: 10000 nM
[3]; [5]
  IC50: 35 nM

## O=C(O)c1ccc2c(=O)[nH]c(Cc3cccc(Cl)c3)nc2c1 [B-1, 2-(3-Chlorobenzyl)-4-oxo-3,4-dihydroquinazoline-7-carboxylic acid]
[2]; [6]
  IC50: 6210 nM
[3]; [7]
  IC50: 18 nM

## O=C(O)c1ccc2c(=O)[nH]c(Cc3ccc(Cl)c(Cl)c3)nc2c1 [B-2, 2-(3,4-Dichlorobenzyl)-4-oxo-3,4-dihydroquinazoline-7-carboxylic acid]
[2]; [6]
  IC50: 1440 nM
[3]; [7]
  IC50: 35 nM

## CC(C)c1ncc2c(=O)[nH]c3cc(Cl)ccc3n12 [C-1, 7-Chloro-1-isopropylimidazo[1,5-a]quinoxalin-4 (5H)-one]
[2]; [4]
  IC50: 1260 nM
[3]; [5]
  IC50: 10 nM

## CC(C)c1ncc2c(=O)[nH]c3cc(C(=O)N(C)C)ccc3n12 [C-2, 1-Isopropyl-N,N-dimethyl-4-oxo-4,5-dihydroimidazo[1,5-a]-quinoxaline-7-carboxamide]
[2]; [4]
  IC50: > 10000 nM
[3]; [5]
  IC50: 42 nM

## COc1cc2c(cc1C(=O)N(C)C)[nH]c(=O)c1cnc(C3CCCCC3)n12 [C-3, 1-Cyclohexyl-8-methoxy-N,N-dimethyl-4-oxo-4,5-dihydro-imidazo[1,5-a]quinoxaline-7-carboxamide]
[2]; [4]
  IC50: > 10000 nM
[3]; [5]
  IC50: 1.2 nM

## CCOc1cc2c(cc1C(=O)N(C)C)[nH]c(=O)c1cnc(C3CCCCC3)n12 [C-4]
[2]; [4]
  IC50: > 10000 nM
[3]; [5]
  IC50: 3.4 nM

## CN(C)C(=O)c1cc2[nH]c(=O)c3cnc(C4CCCCC4)n3c2cc1Cl [C-5, 8-Chloro-1-cyclohexyl-N,N-dimethyl-4-oxo-4,5-dihydroimidazo-[1,5-a]quinoxaline-7-carboxamide]
[2]; [4]
  IC50: > 10000 nM
[3]; [5]
  IC50: 3 nM

## O=C(c1cc2[nH]c(=O)c3cnc(C4CCCCC4)n3c2cc1Cl)N1CCN(CCO)CC1 [C-6, 1-[(8-Chloro-1-cyclohexyl-4-oxo-4,5-dihydroimidazo[1,5-a]-quinoxalin-7-yl)carbonyl]-4-(2-hydroxyethyl)piperazine]
[2]; [4]
  IC50: 7540 nM
[3]; [5]
  IC50: 8 nM

## CCc1ccc2c(c1)[nH]c(=O)c1cnc(CCC(=O)O)n12 [C-7, 3-(7-Ethyl-4-oxo-4,5-dihydroimidazo[1,5-a]quinoxalin-1-yl)-propionic acid]
[2]; [4]
  IC50: > 10000 nM
[3]; [5]
  IC50: 2 nM

## O=C(O)CCc1ncc2c(=O)[nH]c3cc(C(F)(F)F)ccc3n12 [C-8, 3-(4-Oxo-7-trifluoromethyl-4,5-dihydroimidazo[1,5-a]-quinoxalin-1-yl)propionic acid]
[2]; [4]
  IC50: 6370 nM
[3]; [5]
  IC50: 2 nM

## O=C(O)CCc1ncc2c(=O)[nH]c3cc(Br)ccc3n12 [C-9, 3-(7-Bromo-4-oxo-4,5-dihydroimidazo[1,5-a]quinoxalin-1-yl)-propionic acid]
[2]; [4]
  IC50: 2810 nM
[3]; [5]
  IC50: 3 nM

## O=C(O)/C=C/c1ccc2c(=O)[nH]c3cc(C(F)(F)F)ccc3n12 [C-10, (E)-3-(4-oxo-7-trifluoromethyl-4,5-dihydropyrrolo[1,2-a]-quinoxalin-1-yl)acrylic acid]
[2]; [4]
  IC50: 4560 nM
[3]; [5]
  IC50: 8 nM
